Laboratory results: patent US9687480B2, “Chiral 1-(4-methylphenylmethyl)-5-oxo-{N-[(3-t-butoxycarbonyl-aminomethyl)]-piperidin-1-yl)-pyrrolidine as inhibitors of collagen induced platelet activation and adhesion” (Council of Scientific & Industrial Research, priority 2011, dated 2017)

Columns and labels:
[1] = system: human platelet rich plasma (Convulxin, GP VI agonist); test: Convulxin induced platelet aggregation, human platelet rich plasma (in vitro); format: cell-based; conditions: at 500 μM
Method: The reaction was allowed to proceed for at least 5 min, and the extent of aggregation was expressed in light-transmission units (Ivandic B T, Schlick P, Starltz P, Kurz K, Katas H A, Giannitsis E. Determination of clopidogrel resistance by whole blood platelet aggregometry and inhibitors of the P2Y12 receptor. Clinical Chemistry 2006: 52:383-88).
The percentage of aggregation was calculated by using following formula: Percent Aggregation=A/B×100 Where, A is the number of division traversed by the label on chart in the presence of Inducer & B is the total number of divisions (80). Platelet Aggregation Studies (FIG. 3) a) Platelet Aggregation (Human, In Vitro) (FIG. 3a (i) (ii) (iii))

human platelets = test: Intracellular calcium mobilization in Fura-2 loaded platelets stimulated by collagen; format: cell-based; conditions: Fura-2 loaded human platelets, collagen 5 μg/ml
Method: Ca^+2 concentration ([Ca^+2]i) were monitored by Fura-2AM fluorescence in the platelets (Fowler C J. Tiger G Calibration of Fura-2 signals introduces errors into measurement of thrombin-stimulated calcium mobilization in human platelets. Clinica Chimica Acta. 1997; 265:247-261). Human PRP was incubated with 5 μM Fura-2 AM (Sigma) for 60 minutes at 37° C. After 2 washes with the wash buffer, the platelets were resuspended at 2×10^6 cells/mL with the Tyrode's-HEPES buffer. After incubating with various concentrations of compound for 5 minutes, the platelets were stimulated with collagen (5 μg/mL)(the concentration of collagen was varied in accordance with cell number). The Fura-2 fluorescence was measured for 5 minutes at an excitation wavelength of 340/380 nm and emission wavelength of 500 nm (Yoshida S., Sudo T., Niimi M., Tao L., Sun B., Kambayashi J., Watanabe H., Luo E., and Matsuoka H. Inhibition of collagen-induced platelet aggregation by anopheline antiplatelet protein, a saliva protein from a malaria vector mosquito. Blood 2007; 111: 2007-201) using a fluorescence spectrophotometer (VARIAN, Cary Eclipse).

[2] = system: collagen stimulated platelets; test: Immunoblotting: tyrosine phosphorylation of platelet proteins after collagen stimulation; format: cell-based, human; conditions: 10-100 μM
Method: Platelet rich plasma (2×10^8/ml) was pre-incubated with test compound (10-100 μM) or the isovolumetric solvent control (0.5% DMSO) for 5 minutes, followed by the addition of collagen, to trigger platelet activation. The reaction was stopped by the addition of ice cold stop buffer (5 mM EDTA, 5 mM EGTA) and the suspensions were centrifuged at 800×g for 10 minutes and then immediately resuspended in 300 μl of lysis buffer (50 mM HEPES, 5 mM EDTA, 50 mM NaCl, 1% Triton X-100, 10 μg/ml aprotinin, 1 mM PMSF, 10 μg/ml leupeptin, 10 mM NaF, 1 mM sodium orthovanadate, and 5 mM sodium pyrophosphate) (Ezumi Y. Shindoh K, Tsuji M, and Takayama H Physical and Functional Association of the Src Family Kinases Fyn and Lyn with the Collagen Receptor Glycoprotein VI-Fc Receptorg Chain Complex on Human Platelets. J. Exp. Med. 1998; 188: 287-[…]). Lysates were centrifuged at 12,000×g for 5 minutes, after which the supernatants were dissolved in Laemmeli sample buffer (Laemmeli, 1970). […] Immunoreactive bands were detected by chemiluminescence using the ECL-enhanced chemiluminescence system (Inoue K, Ozaki Y, Satoh K, u Y, Yatomi Y, Shin Y and Morita T Signal Transduction Pathways Mediated by Glycoprotein Ia/IIa in Human Platelets: Comparison with those of Glycoprotein VI. Biochem. I and Biophys. Res. Comm. 1999; 256: 114-120).

## Cc1ccc(CN2C(=O)CC[C@H]2C(=O)N2CCC[C@@H](CNC(=O)OC(C)(C)C)C2)cc1 [Compound 6]
[1]
  inhibition of convulxin induced platelet aggregation: does not significantly inhibit
Human platelets
  calcium mobilization ([Ca2+]i) during collagen stimulation: concentration dependent inhibition
[2]
  tyrosine phosphorylation of platelet proteins: attenuated the tyrosine phosphorylation
